The record followed here is ChEMBL document CHEMBL4393697, “Lipophilic efficient phenylthiazoles with potent undecaprenyl pyrophosphatase inhibitory activity” (Eur J Med Chem, 2019).

Values after ≈ are worked out from the molar mass of the structure shown. Active and inactive are the calls of the source. No cut-off for these calls is given here.

Series [1] deals with Staphylococcus aureus. Briefly: Bactericidal activity against vancomycin resistant Staphylococcus aureus VRS12 assessed as reduction in bacterial cell growth incubated for 18 to 20 hrs followed by re-plating on tryptic soy agar plates at 37 degC for 18 hrs by broth microdilution assay. In kind it is functional. (In general: Dilution methods test growth across graded concentrations, often in twofold steps.)

The subject of series [2] is Streptococcus pneumoniae. Briefly: Antibacterial activity against Methicillin resistant Streptococcus pneumoniae ATCC 700677 assessed as reduction in bacterial cell growth incubated for 18 to 20 hrs by broth microdilution method. Format: functional.
Series [3] has as its system Staphylococcus aureus. Briefly: Antibacterial activity against vancomycin resistant Staphylococcus aureus VRS10 assessed as reduction in bacterial cell growth incubated for 18 to 20 hrs by broth microdilution method. Format: functional.
Another series relates to Klebsiella pneumoniae. Description: Antibacterial activity against Klebsiella pneumoniae BAA-1706 assessed as reduction in bacterial cell growth incubated for 18 to 20 hrs by broth microdilution method. In kind it is functional.
In series [4] the test system is J774. Description: Cytotoxicity against mouse J774 assessed as reduction in cell viability at 16 ug/ml incubated for 24 hrs by MTS assay. Format: cell-based. The conditions noted are these: j774, 24 h.
Series [5] concerns Staphylococcus aureus. Description: Antibacterial activity against methicillin-resistant Staphylococcus aureus USA400 assessed as reduction in CFU at 4 x MIC preincubated for 12 hrs in Tryptic soy broth followed by incubation for 18 to 20 hrs on TSA plate by time-kill assay. Format: functional.
The test system of series [6] is Enterococcus faecalis. Description: Antibacterial activity against vancomycin resistant Enterococcus faecalis ATCC 51299 assessed as reduction in bacterial cell growth incubated for 18 to 20 hrs by broth microdilution method. Format: functional.
Series [7] concerns Staphylococcus aureus. Description: Bactericidal activity against vancomycin resistant Staphylococcus aureus VRS10 assessed as reduction in bacterial cell growth incubated for 18 to 20 hrs followed by re-plating on tryptic soy agar plates at 37 degC for 18 hrs by broth microdilution assay. Format: functional.
Series [8] deals with Staphylococcus aureus. Description: Antibacterial activity against methicillin-resistant Staphylococcus aureus USA400 assessed as reduction in CFU at 4 x MIC preincubated for 24 hrs in Tryptic soy broth followed by incubation for 18 to 20 hrs on TSA plate by time-kill assay. Format: functional, organism-based.
The subject of series [9] is Staphylococcus aureus. Briefly: Resistance index, ratio of MIC for antibacterial activity against methicillin-resistant Staphylococcus aureus USA400 treated repeatedly over 6 passages to MIC for antibacterial activity against methicillin-resistant Staphylococcus aureus USA400 treated for 18 to 20 hrs by broth microdilution assay. In kind it is functional.
A further series relates to Listeria monocytogenes. Briefly: Ratio of MBC to MIC for Listeria monocytogenes ATCC 19111 by broth microdilution assay. Format: functional.
In another series the test system is Enterococcus faecium. Briefly: Ratio of MBC to MIC for vancomycin resistant Enterococcus faecium ATCC 700221 by broth microdilution method. Format: functional.
Series [10] deals with Staphylococcus aureus. Briefly: Ratio of MBC to MIC for Staphylococcus aureus ATCC 6538 by broth microdilution assay. Format: functional.
Series [11] concerns Enterococcus faecalis. Description: Ratio of MBC to MIC for vancomycin resistant Enterococcus faecalis ATCC 51299 by broth microdilution method. In kind it is functional.
Series [12] has as its system Streptococcus pneumoniae. Briefly: Ratio of MBC to MIC for Cephalosporin resistant Streptococcus pneumoniae ATCC 51916 by broth microdilution method. In kind it is functional.
For series [13], the system named is Streptococcus pneumoniae. Briefly: Ratio of MBC to MIC for Methicillin resistant Streptococcus pneumoniae ATCC 700677 by broth microdilution method. Format: functional.
Series [14] relates to Staphylococcus aureus. Briefly: Ratio of MBC to MIC for Staphylococcus aureus NRS107 by broth microdilution assay. Format: functional.
Series [15] relates to J774. Briefly: Cytotoxicity against mouse J774 cells reduction in cell viability up to 32 ug/ml incubated for 24 hrs by MTS assay. In kind it is cell-based. The conditions noted are these: j774, 24 h. (In general: Formazan colour is commonly taken as a measure of viable cells.)
Series [16] deals with Staphylococcus aureus. Description: Antibacterial activity against methicillin-resistant Staphylococcus aureus USA400 assessed as reduction in CFU at 4 x MIC preincubated for 6 hrs in Tryptic soy broth followed by incubation for 18 to 20 hrs on TSA plate by time-kill assay. Format: functional, organism-based.
For series [17], the system named is Staphylococcus aureus. Description: Antibacterial activity against methicillin-resistant Staphylococcus aureus USA400 treated over 14 passages by broth microdilution assay. In kind it is functional, organism-based.

By MBC is commonly meant the lowest tested concentration that kills the bacteria rather than only halting them. For orientation: MIC means the least concentration at which growth counts as inhibited. As to `C/C(=N\NC(=N)N)c1sc(-c2ccc(C#Cc3ccc(C)s3)cc2)nc1C`, the MBC with Staphylococcus aureus [1] is 16 µg/mL (≈ 40.7 µM); in the series on Staphylococcus aureus [7], 8 µg/mL (≈ 20.3 µM). Besides, the MIC with Streptococcus pneumoniae [2] stood at 8 µg/mL (≈ 20.3 µM); with Staphylococcus aureus [3] it was 4 µg/mL (≈ 10.2 µM); in the series with Klebsiella pneumoniae, 32 µg/mL (≈ 81.3 µM); with Enterococcus faecalis [6] it was 16 µg/mL (≈ 40.7 µM). The Activity result was “Non-Toxic” in the series on J774 [4] and 3 log10CFU in the series on Staphylococcus aureus [5]. Also, the inhibition result in the series with Staphylococcus aureus [8] is “Active”. Besides, the Ratio with Staphylococcus aureus [9] is reported as 1.

`C/C(=N\NC(=N)N)c1sc(-c2ccc(C#CC(C)(C)O)cc2)nc1C`: the Ratio in the series with Listeria monocytogenes, with Enterococcus faecium, with Staphylococcus aureus [10], in the series on Enterococcus faecalis [11], in the series on Streptococcus pneumoniae [12] and in the series on Streptococcus pneumoniae [13] was 2 throughout. The Ratio in the series with Staphylococcus aureus [14] is on record as 2. Besides, the MBC with Staphylococcus aureus [1] and in the series with Staphylococcus aureus [7] was 16 µg/mL (≈ 45 µM) in each case. The MIC with Streptococcus pneumoniae [2] was 4 µg/mL (≈ 11.3 µM); in the series on Staphylococcus aureus [3], 4 µg/mL (≈ 11.3 µM); with Klebsiella pneumoniae, > 64 µg/mL; in the series with Enterococcus faecalis [6], 4 µg/mL (≈ 11.3 µM). Also, the Activity result with J774 [4] was “Toxic”.

Take `C/C(=N\NC(=N)N)c1sc(-c2ccc(C#Cc3ccc(N)cc3)cc2)nc1C`: the MBC in the series on Staphylococcus aureus [1] and in the series on Staphylococcus aureus [7] was 32 µg/mL (≈ 82.4 µM) throughout. Also, the figures for the Activity entry with J774 [15], in the series with J774 [4] and in the series with Staphylococcus aureus [5] were “Non-Toxic”, “Non-Toxic” and 3 log10CFU, respectively. Also, the MIC in the series with Streptococcus pneumoniae [2] is 16 µg/mL (≈ 41.2 µM); in the series on Staphylococcus aureus [3], 16 µg/mL (≈ 41.2 µM); in the series on Klebsiella pneumoniae it was > 64 µg/mL; in the series on Enterococcus faecalis [6], > 64 µg/mL. For the same compound, the inhibition entry in the series on Staphylococcus aureus [8] was “Active”. Besides, the Ratio in the series with Staphylococcus aureus [9] is 1.

As for `C/C(=N\NC(=N)N)c1sc(-c2ccc(C#CC3(O)CCCCC3)cc2)nc1C`, the Ratio in the series on Listeria monocytogenes, in the series on Enterococcus faecium, in the series with Staphylococcus aureus [10], in the series with Enterococcus faecalis [11], with Streptococcus pneumoniae [12] and in the series on Streptococcus pneumoniae [13] was 2 throughout. The Ratio in the series on Staphylococcus aureus [14] was found to be 2. The MBC with Staphylococcus aureus [1] and in the series on Staphylococcus aureus [7] was 8 µg/mL (≈ 20.2 µM) in each case. Moreover, the minimum inhibitory concentration (MIC) with Streptococcus pneumoniae [2] was 4 µg/mL (≈ 10.1 µM); in the series on Staphylococcus aureus [3], 2 µg/mL (≈ 5.06 µM); in the series with Klebsiella pneumoniae, > 64 µg/mL; with Enterococcus faecalis [6] it was 8 µg/mL (≈ 20.2 µM). Moreover, in the series with J774 [4], the Activity entry is on record as “Non-Toxic”. The inhibition entry in the series on Staphylococcus aureus [16] was “Active”. In addition, the outcome with Staphylococcus aureus [17] was Active.
